Data on 27 molecules can be found in patent US5629332A, “Triazole compound and use thereof” (Nihon Nohyaku Co., Ltd., priority 1994, dated 1997).

Test [1] has as its system Candida albicans IFO 1270. Put plainly: growth inhibition of Candida albicans IFO 1270 in culture (Test Example 1, Table 2). It counts as cell-based. To be noted: 37° C., Sabouraud's glucose broth; for inhibition of growth at 0.1 µg/mL / inhibition of growth at 10 µg/mL: Candida albicans, IFO1270, 48 h; for inhibition of growth at 0.1 µg/mL / Growth inhibition ratio (%) 0.1 μg/ml: final compound concentration 0.1 μg/ml; for inhibition of growth at 0.1 µg/mL: read-out: Growth inhibition ratio (%) 0.1 μg/ml; for inhibition of growth at 10 µg/mL / Growth inhibition ratio (%) 10 μg/ml: final compound concentration 10 μg/ml; for inhibition of growth at 10 µg/mL: read-out: Growth inhibition ratio (%) 10 μg/ml; for Growth inhibition ratio (%) 0.1 μg/ml / Growth inhibition ratio (%) 10 μg/ml: 48 hrs. As for the experimental part: A 0.1 ml portion of a cell suspension of Candida albicans IFO 1270 (1.0×10^7 cells/ml) and a 0.1 ml portion of each test compound dissolved in dimethylsulfoxide were added to 9.8 ml of Sabouraudp's glucose broth.
Final compound concentrations in the culture were 10 μg/ml or 0.1 μg/ml. After incubation On a reciprocal shaker at 37° C. for 48 hrs, growth inhibition ratio of each test compound was measured.

In another test the test system is C. albicans IFO 1270. Put plainly: survival of mice after intravenous inoculation with C. albicans, oral treatment (Test Example 2, Table 3). It counts as in vivo. To be noted: 10 mg/kg orally once a day for 3 consecutive days, 10 days after inoculation, male ddy mice; for responders at 10 mg/kg: Candida albicans, IFO1270, po, 240 h, read-out: Survival ratio (%). As to the method:
Male ddy mice at six weeks of age were divided into a control group of 10 animals and drug administration groups of 5 animals each.
Subculture was carried out at 37° C. for 24 hrs Sabouraudp's glucose agar (manufactured by Difco laboratory).
A cell suspension of C. albicans IFO 1270 (2.5×10^7 cells/ml) was intravenously inoculated in an amount of 4 ml/kg, and each test compound was orally administered in a dose of 10 mg/kg once a day for 3 consecutive days. Examination of survival ratio was carried out 10 days after the inoculation of fungi.

Turning to `CC(Cc1ccc(F)cc1)C(O)(Cn1cncn1)c1ccc(F)cc1F` (centres unmarked) [Compound No. 1], in test [1], the inhibition of growth at 0.1 µg/mL was determined as 71% and the inhibition of growth at 10 µg/mL is 85%. The responders at 10 mg/kg in the test on C. albicans IFO 1270 turned out to be 80%.

`CC(Cc1ccc(S(C)(=O)=O)cc1)C(O)(Cn1cncn1)c1ccc(F)cc1F` (centres unmarked) [compound 30]: in test [1], the inhibition of growth at 0.1 µg/mL stood at 6% and the inhibition of growth at 10 µg/mL was 63%. For the same molecule, the responders at 10 mg/kg in the test with C. albicans IFO 1270 was found to be 100%.

As for `CC(Cc1ccc(Cl)cc1Cl)C(O)(Cn1cncn1)c1ccc(F)cc1F` (centres unmarked) [compound 28], the responders at 10 mg/kg in the test with C. albicans IFO 1270 came out at 100%.

With `CC(Cc1ccc(C#N)cc1)C(O)(Cn1cncn1)c1ccc(F)cc1F` (single isomer, unassigned) [compound 8, 1-triazolyl-2-(2,4-difluorophenyl)-3-methyl-4-(4-cyanophenyl)-2-butanol], in test [1], the inhibition of growth at 0.1 µg/mL was found to be 59% and the inhibition of growth at 10 µg/mL was found to be 78%. In the test on C. albicans IFO 1270, the responders at 10 mg/kg came out at 100%.

As for `CC(CCc1ccc(C#N)cc1)C(O)(Cn1cncn1)c1ccc(F)cc1F` (centres unmarked) [compound 35], in test [1], the inhibition of growth at 0.1 µg/mL came to 60% and the inhibition of growth at 10 µg/mL is 74%.

Take `CC(CSc1ccc(F)cc1)C(O)(Cn1cncn1)c1ccc(F)cc1` (centres unmarked) [compound 4, 1-triazolyl-2-(4-fluorophenyl)-3-methyl-4-(4-fluorophenyl)-mercapto-2-butanol]: in test [1], the inhibition of growth at 0.1 µg/mL worked out at 6% and the inhibition of growth at 10 µg/mL is 72%. Moreover, the responders at 10 mg/kg in the test on C. albicans IFO 1270 stood at 0%.

For the molecule `CC(Cc1ccc(-n2cncn2)cc1)C(O)(Cn1cncn1)c1ccc(F)cc1F` (centres unmarked) [compound 15], in test [1], the inhibition of growth at 0.1 µg/mL came out at 53% and the inhibition of growth at 10 µg/mL came to 66%. Further, the “Survival ratio (%)” value with C. albicans IFO 1270 is given as 100%.

`CC(Cc1ccc([N+](=O)[O-])cc1)C(O)(Cn1cncn1)c1ccc(F)cc1F` (centres unmarked) [compound 22]: in test [1], the inhibition of growth at 0.1 µg/mL stood at 58% and the inhibition of growth at 10 µg/mL came out at 70%. For the same molecule, the responders at 10 mg/kg in the test on C. albicans IFO 1270 stood at 100%.

`CC(Cc1ccc(Cl)cc1SC(F)F)C(O)(Cn1cncn1)c1ccc(F)cc1F` (centres unmarked) [compound 20]: in test [1], the inhibition of growth at 0.1 µg/mL came out at 53% and the inhibition of growth at 10 µg/mL stood at 68%. In addition, the responders at 10 mg/kg in the test on C. albicans IFO 1270 was 100%.

On to `CC(Cc1cccnc1)C(O)(Cn1cncn1)c1ccc(F)cc1F` (centres unmarked) [compound 18], for which the responders at 10 mg/kg with C. albicans IFO 1270 is 40%.

For the molecule `CC(Cc1ccc(-n2cncn2)cc1)C(O)(Cn1cncn1)c1ccc(F)cc1F` (centres unmarked) [compound 17], the “Survival ratio (%)” value in the test on C. albicans IFO 1270 came to 60%.

For `CC(CSc1nccn1C)C(O)(Cn1cncn1)c1ccc(F)cc1` (centres unmarked) [compound 5], in test [1], the inhibition of growth at 0.1 µg/mL turned out to be 5% and the inhibition of growth at 10 µg/mL turned out to be 10%. The responders at 10 mg/kg with C. albicans IFO 1270 worked out at 0%.

For `CC(CCc1ccc(F)cc1)C(O)(Cn1cncn1)c1ccc(F)cc1F` (centres unmarked) [compound 25], in test [1], the inhibition of growth at 0.1 µg/mL amounted to 60% and the inhibition of growth at 10 µg/mL turned out to be 70%.

Consider `CC(Cc1ccc(-n2cncn2)cc1)C(O)(Cn1cncn1)c1ccc(F)cc1F` (centres unmarked) [compound 16], for which the “Survival ratio (%)” value in the test on C. albicans IFO 1270 worked out at 100%.

On to `CC(=O)N1CCN(c2ccc(OC[C@H]3CO[C@](Cn4ccnc4)(c4ccc(Cl)cc4Cl)O3)cc2)CC1` (relative stereo) [Control drug A, cis1-acetyl-4-[4-[[2-(2,4-dichlorophenyl)-2-(imidazol-1-ylmethyl)-1,3-dioolan-4-yl]methoxy]phenyl]piperazine, reference compound], for which, in test [1], the inhibition of growth at 0.1 µg/mL was 59% and the inhibition of growth at 10 µg/mL is 77%. For the same molecule, in the test with C. albicans IFO 1270, the responders at 10 mg/kg turned out to be 20%.

For `CC(Cc1ccc(F)cc1F)C(O)(Cn1cncn1)c1ccc(F)cc1F` (centres unmarked) [compound 32], the responders at 10 mg/kg in the test with C. albicans IFO 1270 was 80%.

Turning to “2-(2,4-difluorophenyl)-2-[1-methyl-2-(4-fluorophenyl)-ethyl]-1-triazolyl-2-ethanol [compound 11]”, in test [1], the “Growth inhibition ratio (%) 0.1 μg/ml” value stood at 45% and the “Growth inhibition ratio (%) 10 μg/ml” value turned out to be 74%. Besides, the “Survival ratio (%)” value in the test with C. albicans IFO 1270 is listed as 60%.

For the molecule `CC(Cc1ccc(C=NNC=O)cc1)C(O)(Cn1cncn1)c1ccc(F)cc1F` (centres unmarked) [compound 27], the responders at 10 mg/kg in the test on C. albicans IFO 1270 was determined as 40%.

For `CC(Cc1ccc(C(F)(F)F)cc1)C(O)(Cn1cncn1)c1ccc(F)cc1F` (centres unmarked) [compound 43], the responders at 10 mg/kg in the test with C. albicans IFO 1270 was found to be 100%.

As to `CC(Cc1ccc(C#N)cc1)C(O)(Cn1cncn1)c1ccc(F)cc1F` (centres unmarked) [compound 7, 1-triazolyl-2-(2,4-difluorophenyl)-3-methyl-4-(4-cyanophenyl)-2-butanol], in test [1], the inhibition of growth at 0.1 µg/mL worked out at 53% and the inhibition of growth at 10 µg/mL amounted to 74%. For the same molecule, the responders at 10 mg/kg in the test on C. albicans IFO 1270 amounted to 100%.

`CC(Cn1cncn1)C(O)(Cn1cncn1)c1ccc(F)cc1` (centres unmarked) [compound 14]: in test [1], the inhibition of growth at 0.1 µg/mL was found to be 2% and the inhibition of growth at 10 µg/mL was determined as 20%. Besides, the responders at 10 mg/kg in the test with C. albicans IFO 1270 came out at 20%.

`CC(CCc1ccc(-n2cncn2)cc1)C(O)(Cn1cncn1)c1ccc(F)cc1F` (centres unmarked) [compound 37, 2-(2,4-difluorophenyl)-3-methyl-5-(4-triazolphenyl)-1-triazolyl-pentan-2-ol]: the responders at 10 mg/kg with C. albicans IFO 1270 worked out at 80%.

For the molecule `CC(CCCc1ccc(Cl)cc1)C(O)(Cn1cncn1)c1ccc(F)cc1F` (centres unmarked) [compound 2], in test [1], the inhibition of growth at 0.1 µg/mL was found to be 60% and the inhibition of growth at 10 µg/mL was 76%. Further, the responders at 10 mg/kg in the test with C. albicans IFO 1270 was 80%.

For the molecule `CC(Cc1ccc(OC(F)(F)F)cc1)C(O)(Cn1cncn1)c1ccc(F)cc1F` (centres unmarked) [Compound No. 10], the responders at 10 mg/kg with C. albicans IFO 1270 turned out to be 100%.

Consider `CC(Cc1ccc(-n2cnn(C)c2=O)cc1)C(O)(Cn1cncn1)c1ccc(F)cc1F` (centres unmarked) [compound 31], for which the responders at 10 mg/kg in the test on C. albicans IFO 1270 was 80%.

For the molecule `CSc1cc(Cl)ccc1CC(C)C(O)(Cn1cncn1)c1ccc(F)cc1F` (centres unmarked) [compound 39], in test [1], the inhibition of growth at 0.1 µg/mL is 53% and the inhibition of growth at 10 µg/mL was found to be 68%. For the same molecule, the responders at 10 mg/kg in the test with C. albicans IFO 1270 stood at 100%.

Consider `CC(CCCc1ccc(Cl)cc1)C(O)(Cn1cncn1)c1ccc(F)cc1F` (centres unmarked) [compound 3], for which, in test [1], the “Growth inhibition ratio (%) 0.1 μg/ml” value turned out to be 58% and the “Growth inhibition ratio (%) 10 μg/ml” value was determined as 74%. Besides, in the test with C. albicans IFO 1270, the “Survival ratio (%)” value is 60%.
